Laboratory results reported in US10913727B2, “Modulators of the integrated stress pathway” (Calico Life Sciences LLC, priority 2016, dated 2021).
pEC50: −log10 of the molar value.

Tested on: HEK293T cells carrying the ATF4 luciferase reporter
Assay: ATF4-Luc assay, in vitro model of Vanishing Cell White Matter Disease (VWMD)
Format: cell-based
Conditions: Homo sapiens, HEK-293T, 1 μg/mL tunicamycin, 7 hours, One Glo luminescence
In short: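 Reporter cells were stably generated by retroviral transduction and puromycin selection, then seeded at 30,000 cells/well. Next day, cells received 1 μg/mL tunicamycin with 200 nM test compound for 7 h, and luciferase luminescence was read with a one-step reagent. Values reported as EC50.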

Structure (SMILES)	pEC50
CS(=O)(=O)Nc1cccc(C(=O)NC23CC(NC(=O)COc4ccc(Cl)c(F)c4)(C2)C3)c1 [Compound 851, N-{3-[2-(4-chloro-3-fluorophenoxy)acetamido]bicyclo[1.1.1]pentan-1-yl}-3-[(methanesulfonyl)amino]benzamide]	6.00 to 6.60
Cc1nc(C(=O)NC23CCC(NC(=O)COc4ccc(Cl)c(Cl)c4)(CC2)[C@@H](O)C3)cs1 [Compound 701, N-{(3S)-4-[2-(3,4-dichlorophenoxy)acetamido]-3-hydroxybicyclo[2.2.2]octan-1-yl}-2-methyl-1,3-thiazole-4-carboxamide]	6.60 to 7.30
CCc1nc(C(=O)NC23CC(NC(=O)COc4ccc5c(c4)OC(F)(F)O5)(C2)C3)cs1 [Compound 699, N-(3-{2-[(2,2-difluoro-2H-1,3-benzodioxol-5-yl)oxy]acetamido}bicyclo[1.1.1]pentan-1-yl)-2-ethyl-1,3-thiazole-4-carboxamide]	6.00 to 6.60
O=C(COc1ccc2c(c1)OC(F)(F)O2)NC12CC(NC(=O)c3cnc(C4CC4)o3)(C1)C2 [Compound 717, 2-cyclopropyl-N-(3-{2-[(2,2-difluoro-2H-1,3-benzodioxol-5-yl)oxy]acetamido}bicyclo[1.1.1]pentan-1-yl)-1,3-oxazole-5-carboxamide]	6.00 to 6.60
O=C(COc1ccc(Cl)c(F)c1)NC12CCC(NC(=O)c3cc(-n4ccnc4)ccn3)(CC1)CC2O (centres unmarked) [Compound 934, N-{4-[2-(4-chloro-3-fluorophenoxy)acetamido]-3-hydroxybicyclo[2.2.2]octan-1-yl}-4-(1H-imidazol-1-yl)pyridine-2-carboxamide]	5.70 to 6.00
Cn1c(C(=O)NC23CC(NC(=O)COc4ccc(Cl)c(F)c4)(C2)C3)ccc1S(N)(=O)=O [Compound 867, N-{3-[2-(4-chloro-3-fluorophenoxy)acetamido]bicyclo[1.1.1]pentan-1-yl}-1-methyl-5-sulfamoyl-1H-pyrrole-2-carboxamide]	< 5.70
COc1ncnc(OC)c1C(=O)NC12CC(NC(=O)COc3ccc(Cl)c(F)c3)(C1)C2 [Compound 118, N-{3-[2-(4-chloro-3-fluorophenoxy)acetamido]bicyclo[1.1.1]pentan-1-yl}-4,6-dimethoxypyrimidine-5-carboxamide]	< 5.70
O=C(COc1ccc(Cl)c(F)c1)NC12CC(NC(=O)c3ccc4ccccc4n3)(C1)C2 [Compound 586, N-{3-[2-(4-chloro-3-fluorophenoxy)acetamido]bicyclo[1.1.1]pentan-1-yl}quinoline-2-carboxamide]	> 7.30
O=C(COc1ccc(Cl)c(F)c1)NC12CC(NC(=O)c3cnn(-c4ccccn4)c3)(C1)C2 [Compound 802, N-{3-[2-(4-chloro-3-fluorophenoxy)acetamido]bicyclo[1.1.1]pentan-1-yl}-1-(pyridin-2-yl)-1H-pyrazole-4-carboxamide]	< 5.70
O=C(COc1ccc(Cl)c(F)c1)NC12CCC(NC(=O)c3cc(O)no3)(CC1)CC2O (centres unmarked) [Compound 411, N-{4-[2-(4-chloro-3-fluorophenoxy)acetamido]-3-hydroxybicyclo[2.2.2]octan-1-yl}-3-hydroxy-1,2-oxazole-5-carboxamide]	< 5.70
O=C(COc1ccc(Cl)c(F)c1)NC12CC(NC(=O)c3ccc4cc(F)ccc4n3)(C1)C2 [Compound 929, N-{3-[2-(4-chloro-3-fluorophenoxy)acetamido]bicyclo[1.1.1]pentan-1-yl}-6-fluoroquinoline-2-carboxamide]	> 7.30
O=C(COc1ccc2c(c1)OC(F)(F)O2)NC12CC(NC(=O)c3cnc(C(F)F)cn3)(C1)C2 [Compound 376, N-(3-{2-[(2,2-difluoro-2H-1,3-benzodioxol-5-yl)oxy]acetamido}bicyclo[1.1.1]pentan-1-yl)-5-(difluoromethyl)pyrazine-2-carboxamide]	6.60 to 7.30
O=C(COc1ccc(Cl)c(F)c1)NC12CC(NC(=O)c3cc(N4CC(O)C4)ccn3)(C1)C2 [Compound 179, N-{3-[2-(4-chloro-3-fluorophenoxy)acetamido]bicyclo[1.1.1]pentan-1-yl}-4-(3-hydroxyazetidin-1-yl)pyridine-2-carboxamide]	6.00 to 6.60
Cn1ncc2cc(C(=O)NC34CC(NC(=O)COc5ccc(Cl)c(F)c5)(C3)C4)cnc21 [Compound 620, N-{3-[2-(4-chloro-3-fluorophenoxy)acetamido]bicyclo[1.1.1]pentan-1-yl}-1-methyl-1H-pyrazolo[3,4-b]pyridine-5-carboxamide]	5.70 to 6.00
CCc1ccc(C(=O)NC23CC(NC(=O)COc4ccc(Cl)c(F)c4)(C2)C3)nc1 [Compound 145, N-{3-[2-(4-chloro-3-fluorophenoxy)acetamido]bicyclo[1.1.1]pentan-1-yl}-5-ethylpyridine-2-carboxamide]	6.60 to 7.30
O=C(COc1ccc(Cl)c(Cl)c1)NC12CCC(NC(=O)c3cnc(-c4ccc(Cl)c(F)c4)o3)(C1)C2 [Compound 110, 2-(4-chloro-3-fluorophenyl)-N-{4-[2-(3,4-dichlorophenoxy)acetamido]bicyclo-[2.1.1]hexan-1-yl}-1,3-oxazole-5-carboxamide]	6.60 to 7.30
Cc1nn(C)c(C(=O)NC23CCC(NC(=O)COc4ccc(Cl)c(F)c4)(CC2)C(O)C3)c1F (centres unmarked) [Compound 517, N-{4-[2-(4-chloro-3-fluorophenoxy)acetamido]-3-hydroxybicyclo[2.2.2]octan-1-yl}-4-fluoro-1,3-dimethyl-1H-pyrazole-5-carboxamide]	6.60 to 7.30
O=C(COc1ccc(Cl)c(F)c1)NC12CC(NC(=O)c3cnc(C4CCOCC4)o3)(C1)C2 [Compound 139, N-{3-[2-(4-chloro-3-fluorophenoxy)acetamido]bicyclo[1.1.1]pentan-1-yl}-2-(oxan-4-yl)-1,3-oxazole-5-carboxamide]	6.00 to 6.60
O=C(COc1ccc(Cl)c(F)c1)NC12CCC(NC(=O)c3cnc(C4CC4)cn3)(CC1)C[C@@H]2O [Compound 653, N-{(3S)-4-[2-(4-chloro-3-fluorophenoxy)acetamido]-3-hydroxybicyclo[2.2.2]octan-1-yl}-5-cyclopropylpyrazine-2-carboxamide]	6.00 to 6.60
O=C(COc1ccc(Cl)c(F)c1)NC12CCC(NC(=O)c3ccc(C(F)(F)F)nc3)(CC1)C(F)C2 (centres unmarked) [Compound 372, N-{4-[2-(4-chloro-3-fluorophenoxy)acetamido]-2-fluorobicyclo[2.2.2]octan-1-yl}-6-(trifluoromethyl)pyridine-3-carboxamide]	6.00 to 6.60
COC1CN(c2ccnc(C(=O)NC34CC(NC(=O)COc5ccc(Cl)c(F)c5)(C3)C4)c2)C1 [Compound 190, N-{3-[2-(4-chloro-3-fluorophenoxy)acetamido]bicyclo[1.1.1]pentan-1-yl}-4-(3-methoxyazetidin-1-yl)pyridine-2-carboxamide]	6.00 to 6.60
O=C(COc1ccc(Cl)c(F)c1)NC12CCC(NC(=O)c3csc(C4CC4)n3)(CC1)C[C@@H]2O [Compound 751, N-{(3S)-4-[2-(4-chloro-3-fluorophenoxy)acetamido]-3-hydroxybicyclo[2.2.2]octan-1-yl}-2-cyclopropyl-1,3-thiazole-4-carboxamide]	> 7.30
O=C(COc1ccc(Cl)c(F)c1)NC12CC(NC(=O)c3nc4ccccc4o3)(C1)C2 [Compound 347, N-{3-[2-(4-chloro-3-fluorophenoxy)acetamido]bicyclo[1.1.1]pentan-1-yl}-1,3-benzoxazole-2-carboxamide]	6.00 to 6.60
